The structures appear in SMILES notation.

As usually defined, the viability is a read-out of living cells in per cent, often relative to untreated cells.

The series in a line: in vitro. The conditions noted are these: human, hek293t cells.
For the compound `Cc1cccc(NC(=O)C(C#N)=Cc2ccc(F)c(F)c2)c1` [8-I16, 2-cyano-3-(3,4-difluorophenyl)-N-(3-methylphenyl)prop-2-enamide], the viability at 48 h, 25 µM was 75.5%.
For `CCCc1ccc(NC(=O)CCl)cc1` [6-I22, 2-chloro-N-(4-propylphenyl)acetamide] the value was 0.417%.
For `CC(Cl)C(=O)N(c1cccc(C#N)c1)C1CCC1` (centres unmarked) [6-N22, 2-chloro-N-(3-cyanophenyl)-N-cyclobutylpropanamide] the value was 90.1%; for `Cc1cn2c(C=C(C#N)C(=O)Nc3c(C)cccc3C)c(C)nc2s1` [9-N19, 2-cyano-3-{2,6-dimethylimidazo[2,1-b][1,3]thiazol-5-yl}-N-(2,6-dimethylphenyl)prop-2-enamide], 94.4%; for `C=CC(=O)NCc1ccc(N2CCN(C)CC2)cc1` [3-I20, N-{[4-(4-methylpiperazin-1-yl)phenyl]methyl}prop-2-enamide], 112%.
For `N#CC(=Cc1cccc2ccccc12)C(=O)NCc1ccc(Cl)cc1` [8-J09, N-[(4-chlorophenyl)methyl]-2-cyano-3-(naphthalen-1-yl)prop-2-enamide] the value was 66%; for `N#CC(=Cc1ccc(O)cc1)C(=O)Nc1ccc(Cl)cc1Cl` [9-G22, 2-cyano-N-(2,4-dichlorophenyl)-3-(4-hydroxyphenyl)prop-2-enamide], 82.3%.
On to `N#CC(=Cc1cn(-c2ccccc2)nc1-c1ccccc1Cl)C(N)=O` [8-N18, 3-[3-(2-chlorophenyl)-1-phenyl-1H-pyrazol-4-yl]-2-cyanoprop-2-enamide], for which the viability at 48 h, 25 µM is 91.5%.
Regarding `CC(Cl)C(=O)NCc1ccc(C(=O)Nc2ccc(F)cc2)cc1` (centres unmarked) [7-G19, 4-[(2-chloropropanamido)methyl]-N-(4-fluorophenyl)benzamide], the viability at 48 h, 25 µM turned out to be 76.3%.
Then `C=CC(=O)NCCN(C)S(=O)(=O)c1cccs1` [2-A09, N-[2-(N-methylthiophene-2-sulfonamido)ethyl]prop-2-enamide], with 129%; and `C=CC(=O)N1CCC(Cc2noc(C)n2)CC1` [2-G22, 1-{4-[(5-methyl-1,2,4-oxadiazol-3-yl)methyl]piperidin-1-yl}prop-2-en-1-one], with 103%; and `C=CC(=O)N(C)Cc1conc1CC` [2-O15, N-[(3-ethyl-1,2-oxazol-4-yl)methyl]-N-methylprop-2-enamide], with 187%.
Then `C=CC(=O)NCC1CS(=O)(=O)c2ccccc21` (centres unmarked) [3-J15, N-[(1,1-dioxo-2,3-dihydro-1lambda6-benzothiophen-3-yl)methyl]prop-2-enamide], with 81.2%; and `CC(C)NC(=O)C(C#N)=Cc1c(Cl)cccc1Cl` [9-E13, 2-cyano-3-(2,6-dichlorophenyl)-N-(propan-2-yl)prop-2-enamide], with 87%.
Turning to `CC(C)C(=O)Nc1ccc(C(=O)C(C)Cl)cc1` (centres unmarked) [10-E08, N-[4-(2-chloropropanoyl)phenyl]-2-methylpropanamide], the viability at 48 h, 25 µM turned out to be 100%.
For `CSc1ccccc1NC(=O)CCl` [4-E11, 2-chloro-N-[2-(methylsulfanyl)phenyl]acetamide], the viability at 48 h, 25 µM came out at 0.595%.
For `C=CC(=O)NCc1ccc(C(=O)N2CCCC(c3nnc[nH]3)C2)cc1` (centres unmarked) [3-E19, N-({4-[3-(4H-1,2,4-triazol-3-yl)piperidine-1-carbonyl]phenyl}methyl)prop-2-enamide] the value was 34.3%; for `COc1ccc(C=C(C#N)C(=O)Nc2ccc([N+](=O)[O-])cc2)cc1` [8-C05, 2-cyano-3-(4-methoxyphenyl)-N-(4-nitrophenyl)prop-2-enamide], 81.5%.
In the case of `N#CC(=Cc1ccc(Cl)cc1)C(=O)Nc1ccc2c(c1)OCCO2` [9-E22, 3-(4-chlorophenyl)-2-cyano-N-(2,3-dihydro-1,4-benzodioxin-6-yl)prop-2-enamide], the viability at 48 h, 25 µM amounted to 106%.
For `C=CC(=O)Nc1cc(C)cc(S(C)(=O)=O)c1` [3-F14, N-(3-methanesulfonyl-5-methylphenyl)prop-2-enamide] the value was 94.1%; for `C=CC(=O)N1CCC(C(=O)NCc2ccc(OC)cn2)CC1` [3-O19, N-[(5-methoxypyridin-2-yl)methyl]-1-(prop-2-enoyl)piperidine-4-carboxamide], 59%.
Then `C=CC(=O)N1CCC(F)CC1` [1-D14, 1-(4-fluoropiperidin-1-yl)prop-2-en-1-one], with 69.9%; and `O=C(CCl)NCC(c1ccccc1)c1c[nH]c2ccccc12` (centres unmarked) [6-C08, 2-chloro-N-[2-(1H-indol-3-yl)-2-phenylethyl]acetamide], with 0.717%.
With `O=C(CCl)Nc1sc2c(c1C(=O)c1ccccc1)CCCC2` [4-A06, N-(3-benzoyl-4,5,6,7-tetrahydro-1-benzothiophen-2-yl)-2-chloroacetamide], the viability at 48 h, 25 µM was found to be 0.213%.
For `CC(=O)c1ccc(S(=O)(=O)N2CCN(C(=O)CCl)CC2)cc1` [5-P16, 1-[4-(4-acetylbenzenesulfonyl)piperazin-1-yl]-2-chloroethan-1-one] the value was 1.74%; for `COc1cccc(NC(=O)C(C#N)=Cc2cccc(Cl)c2Cl)c1` [8-F06, 2-cyano-3-(2,3-dichlorophenyl)-N-(3-methoxyphenyl)prop-2-enamide], 29.8%.
Then `CC(C)c1cc(O)nc(N2CCC(NC(=O)CCl)C2)n1` (centres unmarked) [4-D13, 2-chloro-N-{1-[4-hydroxy-6-(propan-2-yl)pyrimidin-2-yl]pyrrolidin-3-yl}acetamide], with 2.02%; and `Cc1ccccc1C(NC(=O)CCl)c1ccccc1C` [7-J04, N-[bis(2-methylphenyl)methyl]-2-chloroacetamide], with 0.589%; and `C=CC(=O)NCc1csc2nccn12` [3-J13, N-({imidazo[2,1-b][1,3]thiazol-3-yl}methyl)prop-2-enamide], with 76.8%.
For `N#CC(=Cc1ccc(OC(F)F)cc1)C(=O)N1CCCCC1` [8-J20, 3-[4-(difluoromethoxy)phenyl]-2-(piperidine-1-carbonyl)prop-2-enenitrile] the value was 82.8%; for `C=CC(=O)N(Cc1cccs1)C1CCc2cnn(C(C)C)c2C1` (centres unmarked) [1-L15, N-[1-(propan-2-yl)-4,5,6,7-tetrahydro-1H-indazol-6-yl]-N-[(thiophen-2-yl)methyl]prop-2-enamide], 82.3%.
Consider `Cc1cc(C(=O)CCl)c(C)n1-c1ccc(OC(F)(F)F)cc1` [10-G04, 2-chloro-1-{2,5-dimethyl-1-[4-(trifluoromethoxy)phenyl]-1H-pyrrol-3-yl}ethan-1-one], for which the viability at 48 h, 25 µM was found to be 0.243%.
Then `COc1cc(C=C(C#N)C(=O)NC2CC2)ccc1O` [9-G12, 2-cyano-N-cyclopropyl-3-(4-hydroxy-3-methoxyphenyl)prop-2-enamide], with 110%.
Then `N#CC(=CC1=Cc2ccccc2OC1)C(=O)Nc1ccc(C(=O)O)cc1` [8-N08, 4-[3-(2H-chromen-3-yl)-2-cyanoprop-2-enamido]benzoic acid], with 97.6%; and `O=C(CCl)N1N=C(c2cccs2)CC1c1ccccc1O` (centres unmarked) [4-K20, 2-chloro-1-[5-(2-hydroxyphenyl)-3-(thiophen-2-yl)-4,5-dihydro-1H-pyrazol-1-yl]ethan-1-one], with -0.22%.

These data come from PMC11995724, “Antibiotic target discovery by integrated phenotypic and activity-based profiling of electrophilic fragments” (Cell chemical biology, 2025).
